Molecules are shown by their SMILES.

In series [1] the test system is HBV. The series can be described thus: HBV replication inhibition assay (BDNA assay) in HepG2.2.15 cells. The conditions noted are these: Hepatitis B virus, HepG2.2.15, 144 h, 6 days treatment, encapsidated HBV DNA in supernatant, BDNA QuantiGene assay. The format is cell-based. Here is the method:
HBV replication inhibition by the disclosed compounds were determined in cells infected or transfected with HBV or cells with stably integrated HBV, such as HepG2.2.15 cells (Sells et al. 1987). In this example, HepG2.2.15 cells were maintained in cell culture medium containing 10% fetal bovine serum (FBS), Geneticin, L-glutamine, penicillin and streptomycin. HepG2.2.15 cells were seeded in 96-well plates at a density of 40,000 cells/well and were treated with serially diluted compounds at a final DMSO concentration of 0.5% either alone or in combination by adding drugs in a checker box format. Cells were incubated with compounds for three days, after which medium was removed and fresh medium containing compounds was added to cells and incubated for another three days. At day 6, supernatant was removed and treated with DNase at 37° C. for 60 minutes, followed by enzyme inactivation at 75° C. for 15 minutes. […] HBV DNA was denatured by addition of 0.2 M NaOH and detected using a branched DNA (BDNA) QuantiGene assay kit according to manufacturer recommendation (Affymetrix). HBV DNA levels were also quantified using qPCR, based on amplification of encapsidated HBV DNA extraction with QuickExtraction Solution (Epicentre Biotechnologies) and amplification of HBV DNA using HBV specific PCR probes that can hybridize to HBV DNA and a fluorescently labeled probe for quantitation. In addition, cell viability of HepG2.2.15 cells incubated with test compounds alone or in combination was determined by using CellTitre-Glo reagent according to the manufacturer protocol (Promega). The mean background signal from wells containing only culture medium was subtracted from all other samples, and percent inhibition at each compound concentration was calculated by normalizing to signals from HepG2.2.15 cells treated with 0.5% DMSO using equation E1. […]
where DMSOave is the mean signal calculated from the wells that were treated with DMSO control (0% inhibition control) and Xi is the signal measured from the individual wells. […]

Series [2] has as its system HepG2.117 cells. Put plainly: Cytotoxicity in HepG2.117 cells, ATPlite Luminescence Assay. The format is cell-based, human. The conditions noted are these: incubated for 3 days, mean value, read-out: TOX-HepG2.117 CC50 (μM, mean value). Here is the method: (§1) Cytotoxicity of the compounds was tested using HepG2 or HepG2.117 cells, incubated for 3 days in the presence of compounds. The viability of the cells was assessed using the PERKIN ELMER ATPlite Luminescence Assay System.”

Series [3] relates to HBV. The series can be described thus: Anti-HBV activity: intracellular HBV DNA by real-time PCR in HepG2.117 cell line. The format is cell-based, Hepatitis B virus. As to conditions: HepG2.117 cells, 3 days of treatment, intracellular HBV DNA by real-time PCR, mean value, read-out: HBV-AVE-HepG2.117 EC50 (μM, mean value). An outline of the steps:
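HepG2.117 cells, a Tet-off inducible HBV-producing line, induced to replicate HBV and then treated with serially diluted compound. After 3 days, intracellular HBV DNA quantified by real-time PCR with HBV-specific primers and probe.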

A short description of series [4]: Cytotoxicity in HepG2.117 cells, ATPlite Luminescence Assay. The conditions noted are these: human, incubated for 3 days, mean value, read-out: TOX-HepG2.117 CC50 (μM, mean value). In kind it is cell-based, human. As for the experimental part:
as §1
(In ATP-based viability assays light output follows the ATP content of the culture.)

As to `C[C@@H]1Cc2nn3c(c2CN1C(=O)Nc1ccc(F)c(C#N)c1)C(=O)N(C)C[C@H](c1cc[nH]n1)C3` (relative stereo) [Example 7a], the EC50 in series [1] is 37 nM.

On to `C[C@@H]1Cc2nn3c(c2CN1C(=O)Nc1ccc(F)c(C#N)c1)C(=O)N(C)CC(c1cc[nH]n1)C3` (single isomer, unassigned) [Example 9a, (3R,8R*)—N-(3-Cyano-4-fluorophenyl)-3,10-dimethyl-11-oxo-8-(1H-pyrazol-3-yl)-3,4,8,9,10,11-hexahydro-1H-pyrido[4′,3′:3,4]pyrazolo[1,5-a][1,4]diazepine-2(7H)-carboxamide], for which the EC50 in series [1] is 260 nM.

Take `C[C@@H]1Cc2nn3c(c2CN1C(=O)c1ccc(Cl)c(Cl)c1)C(=O)N(C)OC(CF)C3` (stereo in doubt) [Compound 47, (4*R,9R)-10-(3,4-Dichlorobenzoyl)-4-(fluoromethyl)-2,9-dimethyl-4,5,8,9,10,11-hexahydro-pyrido[4′,3′:3,4]pyrazolo[5,1-d][1,2,5]oxadiazepin-1(2H)-one]: the CC50 in series [2] stood at 3.63 µM. In addition, the EC50 in series [3] worked out at 0.249 µM.

In the case of `CC(C)N1CCn2nc3c(c2C1=O)CN(C(=O)c1ccc(Cl)c(Cl)c1)CC3` [Compound 2, 2-(3,4-Dichlorobenzoyl)-9-(propan-2-yl)-1,2,3,4,8,9-hexahydropyrido[4′,3′:3,4]pyrazolo[1,5-a]-pyrazin-10(7H)-one], the melting point was found to be 190 °C. Further, in series [4], the CC50 at 3 days is above 50 µM. Also, in series [3] (Hepatitis B virus, 72 h), the EC50 was determined as 1.15 µM.

`O=C1NCCCn2nc3c(c21)CN(C(=O)c1ccc(Cl)c(Cl)c1)CC3` [Compound 33, 2-(3,4-Dichlorobenzoyl)-1,2,3,4,7,8,9,10-octahydro-11H-pyrido[4′,3′:3,4]pyrazolo[1,5-a][1,4]-diazepin-11-one] gave a melting point of 237 °C. In addition, the CC50 at 3 days in series [4] was above 50 µM. Further, in series [3] (Hepatitis B virus, 72 h), the EC50 was found to be 9.61 µM.

Turning to `CN1CC(c2ccn(C)n2)Cn2nc3c(c2C1=O)CN(C(=O)Nc1ccc(F)c(C#N)c1)CC3` (centres unmarked) [Example 5a, N-(3-Cyano-4-fluorophenyl)-10-methyl-8-(1-methyl-1H-pyrazol-3-yl)-11-oxo-3,4,8,9,10,11-hexahydro-1H-pyrido[4′,3′:3,4]pyrazolo[1,5-a][1,4]diazepine-2(7H)-carboxamide], the EC50 in series [1] was determined as 160 nM.

Broadly, the EC50 is the concentration that produces a half-maximal response. Broadly, the CC50 is the concentration giving 50% cytotoxicity. The term melting point denotes the temperature of the solid-liquid transition.

The record behind these values is patent publication US20220348592A1, “FUSED HETEROCYCLIC DERIVATIVES” (Janssen Sciences Ireland Unlimited Company, priority 2019, published 2022).
